# Assay results: ChEMBL document CHEMBL1201861, “Genomics of Drug Sensitity in Cancer screening data, Wellcome Trust Sanger Institute”
# Columns and labels:
# Assay in all cases: cells
# [1] = test system: MDA-MB-231; format: functional, cell-based, Homo sapiens; settings: Homo sapiens, MDA-MB-231
# Description: SANGER: Inhibition of human MDA-MB-231 cell growth in a cell viability assay.
# [2] = test system: DMS-79; format: functional, cell-based; settings: Homo sapiens;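 also: growth inhibition measured with a cell viability assay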
# Description: SANGER: Inhibition of human DMS-79 cell growth in a cell viability assay.
# [3] = test system: RPMI-7951; format: functional, cell-based, Homo sapiens; settings: Homo sapiens, RPMI-7951
# Description: SANGER: Inhibition of human RPMI-7951 cell growth in a cell viability assay.
# [4] = test system: CCRF-CEM; format: functional, cell-based; settings: Homo sapiens;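 also: inhibition of CCRF-CEM cell growth, measured by a cell viability assay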
# Description: SANGER: Inhibition of human CCRF-CEM cell growth in a cell viability assay.
# [5] = test system: KYSE-140; format: functional, cell-based, Homo sapiens; settings: Homo sapiens, KYSE-140;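 also: cell viability assay measuring growth inhibition in human KYSE-140 cells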
# Description: SANGER: Inhibition of human KYSE-140 cell growth in a cell viability assay.
# [6] = test system: HSC-3; format: functional, cell-based, Homo sapiens; settings: Homo sapiens, HSC-3
# Description: SANGER: Inhibition of human HSC-3 cell growth in a cell viability assay.
# [7] = test system: KU812 cell line; format: functional, cell-based; settings: Homo sapiens;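 also: growth inhibition of KU812 cells, read out with a cell viability assay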
# Description: SANGER: Inhibition of human KU812 cell growth in a cell viability assay.
# [8] = test system: SCC-15; format: functional, cell-based, Homo sapiens; settings: Homo sapiens, SCC-15;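 also: growth inhibition of SCC-15 cells, read out with a cell viability assay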
# Description: SANGER: Inhibition of human SCC-15 cell growth in a cell viability assay.
# [9] = test system: SW948; format: functional, cell-based, Homo sapiens; settings: Homo sapiens, SW948;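 also: growth inhibition of SW948 cells, read out with a cell viability assay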
# Description: SANGER: Inhibition of human SW948 cell growth in a cell viability assay.
# [10] = test system: TE-8; format: functional, cell-based, Homo sapiens; settings: Homo sapiens, TE-8;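 also: growth inhibition of TE-8 cells, measured with a cell viability readout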
# Description: SANGER: Inhibition of human TE-8 cell growth in a cell viability assay.
# [11] = test system: SW626; format: functional, cell-based, Homo sapiens; settings: Homo sapiens, SW626;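 also: growth inhibition of SW626 cells, measured with a cell viability assay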
# Description: SANGER: Inhibition of human SW626 cell growth in a cell viability assay.
# [12] = test system: U-118-MG; format: functional, cell-based, Homo sapiens; settings: Homo sapiens, U-118-MG
# Description: SANGER: Inhibition of human U-118-MG cell growth in a cell viability assay.
# [13] = test system: NCI-H1304; format: functional, cell-based; settings: Homo sapiens;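 also: growth inhibition of the cancer cell line, measured in a cell viability assay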
# Description: SANGER: Inhibition of human NCI-H1304 cell growth in a cell viability assay.
# [14] = test system: NCI-H292; format: functional, cell-based, Homo sapiens; settings: Homo sapiens, NCI-H292;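 also: growth inhibition of NCI-H292 cells, read out with a cell viability assay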
# Description: SANGER: Inhibition of human NCI-H292 cell growth in a cell viability assay.
# [15] = test system: NCI-H1355; format: functional, cell-based, Homo sapiens; settings: Homo sapiens, NCI-H1355;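 also: growth inhibition of human NCI-H1355 cells, read out by a cell viability assay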
# Description: SANGER: Inhibition of human NCI-H1355 cell growth in a cell viability assay.
# [16] = test system: KARPAS-45; format: functional, cell-based; settings: Homo sapiens;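 also: inhibition of cell line growth, read out through a viability assay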
# Description: SANGER: Inhibition of human KARPAS-45 cell growth in a cell viability assay.
# [17] = test system: KYSE-270; format: functional, cell-based, Homo sapiens; settings: Homo sapiens, KYSE-270;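 also: cell growth inhibition measured with a viability assay in the human KYSE-270 line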
# Description: SANGER: Inhibition of human KYSE-270 cell growth in a cell viability assay.
# [18] = test system: ETK-1; format: functional, cell-based, Homo sapiens; settings: Homo sapiens, ETK-1;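 also: growth inhibition of human ETK-1 cells, read out with a cell viability assay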
# Description: SANGER: Inhibition of human ETK-1 cell growth in a cell viability assay.
# [19] = test system: UO-31; format: functional, cell-based; settings: Homo sapiens;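 also: cell viability assay measuring inhibition of cell growth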
# Description: SANGER: Inhibition of human U031 cell growth in a cell viability assay.
# [20] = test system: COLO-320-HSR; format: functional, cell-based; settings: Homo sapiens;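 also: growth inhibition of COLO-320-HSR cells, determined with a cell viability assay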
# Description: SANGER: Inhibition of human COLO-320-HSR cell growth in a cell viability assay.
# [21] = test system: COLO-668; format: functional, cell-based, Homo sapiens; settings: Homo sapiens, COLO-668
# Description: SANGER: Inhibition of human COLO-668 cell growth in a cell viability assay.
# [22] = test system: OCI-AML2; format: functional, cell-based; settings: Homo sapiens;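 also: growth inhibition of OCI-AML2 cells, read out with a cell viability assay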
# Description: SANGER: Inhibition of human OCI-AML2 cell growth in a cell viability assay.
# [23] = test system: JEG-3; format: functional, cell-based, Homo sapiens; settings: Homo sapiens, JEG-3;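 also: growth inhibition of human JEG-3 cells, read out with a cell viability assay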
# Description: SANGER: Inhibition of human JEG-3 cell growth in a cell viability assay.
# [24] = test system: EKVX; format: functional, cell-based, Homo sapiens; settings: Homo sapiens, EKVX;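 also: growth inhibition of human EKVX cells, read out with a cell viability assay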
# Description: SANGER: Inhibition of human EKVX cell growth in a cell viability assay.
# [25] = test system: COLO-824; format: functional, cell-based, Homo sapiens; settings: Homo sapiens, COLO-824
# Description: SANGER: Inhibition of human COLO-824 cell growth in a cell viability assay.
# [26] = test system: LS-1034; format: functional, cell-based, Homo sapiens; settings: Homo sapiens, LS-1034
# Description: SANGER: Inhibition of human LS-1034 cell growth in a cell viability assay.
# [27] = test system: T84; format: functional, cell-based, Homo sapiens; settings: Homo sapiens, T84;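 also: growth inhibition measured with a cell viability readout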
# Description: SANGER: Inhibition of human T84 cell growth in a cell viability assay.
# [28] = test system: NB69; format: functional, cell-based, Homo sapiens; settings: Homo sapiens, NB69;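 also: growth inhibition of NB69 cells, determined by a cell viability assay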
# Description: SANGER: Inhibition of human NB69 cell growth in a cell viability assay.
# [29] = test system: SiHa; format: functional, cell-based, Homo sapiens; settings: Homo sapiens, SiHa;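 also: Viability-based readout of growth inhibition in SiHa cells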
# Description: SANGER: Inhibition of human SiHa cell growth in a cell viability assay.
# [30] = test system: SK-PN-DW; format: functional, cell-based; settings: Homo sapiens;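 also: growth inhibition measured with a viability assay on these cells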
# Description: SANGER: Inhibition of human SK-PN-DW cell growth in a cell viability assay.
# [31] = test system: OMC-1; format: functional, cell-based, Homo sapiens; settings: Homo sapiens, OMC-1;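 also: growth inhibition of the OMC-1 cell line, measured by a cell viability assay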
# Description: SANGER: Inhibition of human OMC-1 cell growth in a cell viability assay.
# [32] = test system: GI-1; format: functional, cell-based, Homo sapiens; settings: Homo sapiens, GI-1;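 also: growth inhibition of human GI-1 cells, measured with a cell viability readout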
# Description: SANGER: Inhibition of human GI-1 cell growth in a cell viability assay.
# [33] = test system: NB14; format: functional, cell-based; settings: Homo sapiens;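 also: growth inhibition of NB14 cells measured with a cell viability assay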
# Description: SANGER: Inhibition of human NB14 cell growth in a cell viability assay.
# [34] = test system: SK-UT-1; format: functional, cell-based, Homo sapiens; settings: Homo sapiens, SK-UT-1;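 also: growth inhibition of SK-UT-1 cells, measured by a cell viability assay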
# Description: SANGER: Inhibition of human SK-UT-1 cell growth in a cell viability assay.
# [35] = test system: ATN-1; format: functional, cell-based; settings: Homo sapiens;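 also: growth inhibition of human ATN-1 cells, read out with a cell viability assay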
# Description: SANGER: Inhibition of human ATN-1 cell growth in a cell viability assay.
# [36] = test system: NUGC-3; format: functional, cell-based, Homo sapiens; settings: Homo sapiens, NUGC-3;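 also: growth inhibition of human NUGC-3 cells, read out with a cell viability assay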
# Description: SANGER: Inhibition of human NUGC-3 cell growth in a cell viability assay.
# [37] = test system: SK-LU-1; format: functional, cell-based, Homo sapiens; settings: Homo sapiens, SK-LU-1;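 also: cell viability assay measuring growth inhibition of human SK-LU-1 cells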
# Description: SANGER: Inhibition of human SK-LU-1 cell growth in a cell viability assay.
# [38] = test system: MDA-MB-157; format: functional, cell-based, Homo sapiens; settings: Homo sapiens, MDA-MB-157
# Description: SANGER: Inhibition of human MDA-MB-157 cell growth in a cell viability assay.
# [39] = test system: TK-10; format: functional, cell-based, Homo sapiens; settings: Homo sapiens, TK-10;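 also: growth inhibition of TK-10 cells, read out in a cell viability assay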
# Description: SANGER: Inhibition of human TK10 cell growth in a cell viability assay.
# [40] = test system: HCC38; format: functional, cell-based, Homo sapiens; settings: Homo sapiens, HCC38;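 also: cell viability assay on the human HCC38 cell line, with IC50 marking the concentration that inhibits cell growth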
# Description: SANGER: Inhibition of human HCC38 cell growth in a cell viability assay.
# [41] = test system: COLO-684; format: functional, cell-based; settings: Homo sapiens
# Description: SANGER: Inhibition of human COLO-684 cell growth in a cell viability assay.
# [42] = test system: K5; format: functional, cell-based, Homo sapiens; settings: Homo sapiens, K5
# Description: SANGER: Inhibition of human K5 cell growth in a cell viability assay.
# [43] = test system: UMUC3; format: functional, cell-based, Homo sapiens; settings: Homo sapiens, UMUC3;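 also: growth inhibition of human UM-UC-3 cells, read out with a cell viability assay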
# Description: SANGER: Inhibition of human UM-UC-3 cell growth in a cell viability assay.
# [44] = test system: EW-18; format: functional, cell-based; settings: Homo sapiens;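 also: growth inhibition of EW-18 cells, read out by a cell viability assay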
# Description: SANGER: Inhibition of human EW-18 cell growth in a cell viability assay.
# [45] = test system: RERF-LC-MS; format: functional, cell-based, Homo sapiens; settings: Homo sapiens, RERF-LC-MS;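 also: growth inhibition of human RERF-LC-MS cells, read out by a cell viability assay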
# Description: SANGER: Inhibition of human RERF-LC-MS cell growth in a cell viability assay.
# [46] = test system: MEL-HO; format: functional, cell-based, Homo sapiens; settings: Homo sapiens, MEL-HO
# Description: SANGER: Inhibition of human MEL-HO cell growth in a cell viability assay.
# [47] = test system: BB30-HNC; format: functional, cell-based, Homo sapiens; settings: Homo sapiens, BB30-HNC;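 also: growth inhibition of the cultured cell line, read out by a cell viability assay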
# Description: SANGER: Inhibition of human BB30-HNC cell growth in a cell viability assay.
# [48] = test system: ALL-PO; format: functional, cell-based; settings: Homo sapiens;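 also: growth inhibition of ALL-PO cells, read out by a cell viability assay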
# Description: SANGER: Inhibition of human ALL-PO cell growth in a cell viability assay.
# [49] = test system: SW1783; format: functional, cell-based; settings: Homo sapiens;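 also: cell growth inhibition measured with a viability assay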
# Description: SANGER: Inhibition of human SW1783 cell growth in a cell viability assay.
# [50] = test system: NB13; format: functional, cell-based, Homo sapiens; settings: Homo sapiens, NB13;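 also: cell viability readout measuring growth inhibition of human NB13 cells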
# Description: SANGER: Inhibition of human NB13 cell growth in a cell viability assay.
# [51] = test system: CAL-85-1; format: functional, cell-based; settings: Homo sapiens;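 also: growth inhibition of human CAL-85-1 cells, read out with a cell viability assay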
# Description: SANGER: Inhibition of human CAL-85-1 cell growth in a cell viability assay.
# [52] = test system: NCI-H596; format: functional, cell-based, Homo sapiens; settings: Homo sapiens, NCI-H596;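 also: growth inhibition of NCI-H596 cells, read out with a cell viability assay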
# Description: SANGER: Inhibition of human NCI-H596 cell growth in a cell viability assay.
smiles,measurement,setting,value
O=C(c1cc(Cc2n[nH]c(=O)c3ccccc23)ccc1F)N1CCN(C(=O)C2CC2)CC1 [OLAPARIB],IC50,[1],> 5000 nM
same,IC50,[2],> 5000 nM
same,IC50,[3],> 5000 nM
same,IC50,[4],> 5000 nM
same,IC50,[5],> 5000 nM
same,IC50,[6],> 5000 nM
same,IC50,[7],> 5000 nM
same,IC50,[8],> 5000 nM
same,IC50,[9],> 5000 nM
same,IC50,[10],> 5000 nM
same,IC50,[11],> 5000 nM
same,IC50,[12],> 5000 nM
same,IC50,[13],> 5000 nM
same,IC50,[14],> 5000 nM
same,IC50,[15],> 5000 nM
same,IC50,[16],> 5000 nM
same,IC50,[17],> 5000 nM
same,IC50,[18],> 5000 nM
same,IC50,[19],> 5000 nM
same,IC50,[20],> 5000 nM
same,IC50,[21],> 5000 nM
same,IC50,[22],> 5000 nM
same,IC50,[23],> 5000 nM
same,IC50,[24],> 5000 nM
same,IC50,[25],> 5000 nM
same,IC50,[26],> 5000 nM
same,IC50,[27],> 5000 nM
same,IC50,[28],> 5000 nM
same,IC50,[29],> 5000 nM
same,IC50,[30],> 5000 nM
same,IC50,[31],> 5000 nM
same,IC50,[32],> 5000 nM
same,IC50,[33],> 5000 nM
same,IC50,[34],> 5000 nM
same,IC50,[35],> 5000 nM
same,IC50,[36],> 5000 nM
same,IC50,[37],> 5000 nM
same,IC50,[38],> 5000 nM
same,IC50,[39],> 5000 nM
same,IC50,[40],> 5000 nM
same,IC50,[41],3520 nM
same,IC50,[42],> 5000 nM
same,IC50,[43],> 5000 nM
same,IC50,[44],> 5000 nM
same,IC50,[45],> 5000 nM
same,IC50,[46],> 5000 nM
same,IC50,[47],> 5000 nM
same,IC50,[48],> 5000 nM
same,IC50,[49],> 5000 nM
same,IC50,[50],> 5000 nM
same,IC50,[51],> 5000 nM
same,IC50,[52],> 5000 nM
CC(=O)O[C@@]12CO[C@@H]1C[C@H](O)[C@@]1(C)C(=O)[C@H](O)C3=C(C)[C@@H](OC(=O)[C@H](O)[C@@H](NC(=O)OC(C)(C)C)c4ccccc4)C[C@@](O)([C@@H](OC(=O)c4ccccc4)[C@H]21)C3(C)C [DOCETAXEL],IC50,[1],7.3 nM
same,IC50,[2],> 10 nM
same,IC50,[3],0.448 nM
same,IC50,[4],> 10 nM
same,IC50,[5],0.933 nM
same,IC50,[6],0.132 nM
same,IC50,[7],> 10 nM
same,IC50,[8],6.89 nM
same,IC50,[9],> 10 nM
same,IC50,[10],0.366 nM
same,IC50,[11],6.24 nM
same,IC50,[12],> 10 nM
same,IC50,[13],> 10 nM
same,IC50,[14],0.159 nM
same,IC50,[15],6.79 nM
same,IC50,[16],6.52 nM
same,IC50,[17],2.78 nM
same,IC50,[18],0.558 nM
same,IC50,[19],3.07 nM
same,IC50,[20],> 10 nM
same,IC50,[21],> 10 nM
same,IC50,[22],> 10 nM
same,IC50,[23],2.82 nM
same,IC50,[24],> 10 nM
same,IC50,[25],5.9 nM
same,IC50,[26],> 10 nM
same,IC50,[27],> 10 nM
same,IC50,[28],6.29 nM
same,IC50,[29],4.3 nM
same,IC50,[30],1.94 nM
same,IC50,[31],9.06 nM
same,IC50,[32],0.528 nM
same,IC50,[33],0.26 nM
same,IC50,[34],2.26 nM
same,IC50,[35],> 10 nM
same,IC50,[36],3.08 nM
same,IC50,[37],> 10 nM
same,IC50,[38],> 10 nM
same,IC50,[39],9.77 nM
same,IC50,[40],6 nM
same,IC50,[41],> 10 nM
same,IC50,[42],0.778 nM
same,IC50,[43],> 10 nM
same,IC50,[44],> 10 nM
same,IC50,[45],1.13 nM
same,IC50,[46],> 10 nM
same,IC50,[47],1.05 nM
same,IC50,[48],8.6 nM
same,IC50,[49],5.7 nM
same,IC50,[50],1.07 nM
same,IC50,[51],> 10 nM
same,IC50,[52],> 10 nM
CN(Cc1cnc2nc(N)nc(N)c2n1)c1ccc(C(=O)N[C@@H](CCC(=O)O)C(=O)O)cc1 [METHOTREXATE],IC50,[1],> 200 nM
same,IC50,[2],> 200 nM
same,IC50,[3],> 200 nM
same,IC50,[4],> 200 nM
same,IC50,[5],> 200 nM
same,IC50,[6],> 200 nM
same,IC50,[8],> 200 nM
same,IC50,[9],> 200 nM
same,IC50,[10],> 200 nM
same,IC50,[11],> 200 nM
same,IC50,[12],> 200 nM
same,IC50,[13],> 200 nM
same,IC50,[14],> 200 nM
same,IC50,[15],> 200 nM
same,IC50,[16],124 nM
same,IC50,[17],52.1 nM
same,IC50,[18],> 200 nM
same,IC50,[19],> 200 nM
same,IC50,[20],52.4 nM
same,IC50,[21],> 200 nM
same,IC50,[22],> 200 nM
same,IC50,[23],> 200 nM
same,IC50,[24],> 200 nM
same,IC50,[25],> 200 nM
same,IC50,[26],> 200 nM
same,IC50,[27],> 200 nM
same,IC50,[28],> 200 nM
same,IC50,[29],> 200 nM
same,IC50,[30],> 200 nM
same,IC50,[31],> 200 nM
same,IC50,[32],> 200 nM
same,IC50,[33],75 nM
same,IC50,[34],> 200 nM
same,IC50,[35],3.92 nM
same,IC50,[36],> 200 nM
same,IC50,[37],> 200 nM
same,IC50,[38],> 200 nM
same,IC50,[39],> 200 nM
same,IC50,[40],> 200 nM
same,IC50,[41],37.5 nM
same,IC50,[42],59.8 nM
same,IC50,[43],> 200 nM
same,IC50,[44],> 200 nM
same,IC50,[45],> 200 nM
same,IC50,[46],> 200 nM
same,IC50,[47],94.3 nM
same,IC50,[48],5.86 nM
same,IC50,[49],> 200 nM
same,IC50,[50],> 200 nM
same,IC50,[51],> 200 nM
same,IC50,[52],> 200 nM
